{"source": "paper PMC7301841", "about": "“LuxR Solos in the Plant Endophyte Kosakonia sp. Strain KO348” (Applied and Environmental Microbiology, 2020)"}
{"target": "T1, LoxR (Kosakonia pseudosacchari, UniProt A0ABX4IX59)", "T1 construct": "gene BK796_01250; full-length, His6-tagged (pET22b NdeI/XhoI, tag at C-terminus by vector), E. coli BL21(DE3) pLysS; forward primer encodes N-terminus MQDTEFFT", "T1 sequence (A0ABX4IX59 entry or part of it)": "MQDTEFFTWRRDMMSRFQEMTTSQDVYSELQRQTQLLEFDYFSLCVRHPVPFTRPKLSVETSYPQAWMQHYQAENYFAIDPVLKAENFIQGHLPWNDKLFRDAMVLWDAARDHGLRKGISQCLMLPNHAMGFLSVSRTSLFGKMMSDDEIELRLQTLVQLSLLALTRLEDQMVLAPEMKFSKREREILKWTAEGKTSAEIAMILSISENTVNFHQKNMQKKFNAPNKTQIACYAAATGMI", "test": "co-purification of complex (Ni-NTA, gel filtration), LC-MS/MS detection of coeluting AHL; ligand-dependent solubility", "type": "binding", "details": "expressed with 10 uM AHL, 16°C; pH 8.5"}
{"smiles": "CCCCCC(=O)N[C@H]1CCOC1=O", "note": "[C6-HSL]", "co-purification of complex (Ni-NTA, gel filtration), LC-MS/MS detection of coelu": "It was therefore concluded that AHLs solubilize and bind to LoxR."}
{"smiles": "CCCCCCCCCC(=O)CC(=O)N[C@H]1CCOC1=O", "note": "[OC12-HSL]", "co-purification of complex (Ni-NTA, gel filtration), LC-MS/MS detection of coelu": "OC12-HSL was also able to solubilize LoxR (data not shown)"}
{"target": "T1, LoxR", "test": "ligand-dependent solubility on expression in E. coli (total extract vs soluble fraction)", "type": "cell-based", "details": "expressed in E. coli in presence of AHL, 0.2 mM IPTG, 37°C overnight"}
{"smiles": "CCCCCCCCCC(=O)N[C@H]1CCOC1=O", "note": "[C10-HSL]", "ligand-dependent solubility on expression in E. coli (total extract vs soluble f)": "LoxR was soluble when bound and insoluble when unbound to AHLs"}
{"smiles": "CCCC(=O)CC(=O)N[C@H]1CCOC1=O", "note": "[OC6-HSL]", "ligand-dependent solubility on expression in E. coli (total extract vs soluble f)": "LoxR was soluble when bound and insoluble when unbound to AHLs"}
{"smiles": "CCCCCC(=O)CC(=O)N[C@H]1CCOC1=O", "note": "[OC8-HSL]", "ligand-dependent solubility on expression in E. coli (total extract vs soluble f)": "LoxR was soluble when bound and insoluble when unbound to AHLs"}
{"smiles": "CCCC(O)CC(=O)N[C@H]1CCOC1=O", "note": "(stereo partly drawn) [OHC6-HSL]", "ligand-dependent solubility on expression in E. coli (total extract vs soluble f)": "LoxR was soluble when bound and insoluble when unbound to AHLs"}
